The values below come from patent US7091202B2, “4-arylspirocycloalkyl-2-aminopyrimidine carboxamide KCNQ potassium channel modulators” (Bristol-Myers Squibb Company, priority 2004, dated 2006).

Structures are written as SMILES.

The target in the first experiment is T1, hQ23 (HEK-293 cell line stably transfected with one of the members of the KCNQ family) (Homo sapiens, UniProt O43525+O43526).
T1 construct: expressed in transfected cells; host or cells: HEK-293, stably transfected
T1 sequence (O43526 whole entry): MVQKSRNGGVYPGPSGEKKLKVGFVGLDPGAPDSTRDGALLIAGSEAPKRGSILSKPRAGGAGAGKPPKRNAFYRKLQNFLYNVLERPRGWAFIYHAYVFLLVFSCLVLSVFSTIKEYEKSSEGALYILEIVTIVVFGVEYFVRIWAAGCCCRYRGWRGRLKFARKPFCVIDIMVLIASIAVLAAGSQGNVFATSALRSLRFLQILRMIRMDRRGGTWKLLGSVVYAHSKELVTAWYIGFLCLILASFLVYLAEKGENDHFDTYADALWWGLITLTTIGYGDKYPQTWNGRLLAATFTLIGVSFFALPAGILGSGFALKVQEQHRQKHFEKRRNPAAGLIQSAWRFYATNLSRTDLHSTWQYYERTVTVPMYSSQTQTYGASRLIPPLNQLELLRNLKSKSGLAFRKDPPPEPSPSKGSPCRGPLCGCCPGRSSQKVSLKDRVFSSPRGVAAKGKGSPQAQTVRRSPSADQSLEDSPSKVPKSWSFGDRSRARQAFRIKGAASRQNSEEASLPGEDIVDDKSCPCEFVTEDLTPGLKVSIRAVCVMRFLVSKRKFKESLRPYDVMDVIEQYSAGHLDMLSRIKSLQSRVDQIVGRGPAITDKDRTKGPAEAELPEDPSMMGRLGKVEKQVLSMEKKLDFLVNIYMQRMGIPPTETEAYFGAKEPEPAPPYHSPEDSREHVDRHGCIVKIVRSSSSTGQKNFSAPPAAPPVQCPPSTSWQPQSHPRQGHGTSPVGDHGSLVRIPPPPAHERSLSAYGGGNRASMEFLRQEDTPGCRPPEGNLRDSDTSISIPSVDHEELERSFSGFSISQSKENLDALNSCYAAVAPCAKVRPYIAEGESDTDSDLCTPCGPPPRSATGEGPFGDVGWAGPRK
T1 sequence (O43525 whole entry): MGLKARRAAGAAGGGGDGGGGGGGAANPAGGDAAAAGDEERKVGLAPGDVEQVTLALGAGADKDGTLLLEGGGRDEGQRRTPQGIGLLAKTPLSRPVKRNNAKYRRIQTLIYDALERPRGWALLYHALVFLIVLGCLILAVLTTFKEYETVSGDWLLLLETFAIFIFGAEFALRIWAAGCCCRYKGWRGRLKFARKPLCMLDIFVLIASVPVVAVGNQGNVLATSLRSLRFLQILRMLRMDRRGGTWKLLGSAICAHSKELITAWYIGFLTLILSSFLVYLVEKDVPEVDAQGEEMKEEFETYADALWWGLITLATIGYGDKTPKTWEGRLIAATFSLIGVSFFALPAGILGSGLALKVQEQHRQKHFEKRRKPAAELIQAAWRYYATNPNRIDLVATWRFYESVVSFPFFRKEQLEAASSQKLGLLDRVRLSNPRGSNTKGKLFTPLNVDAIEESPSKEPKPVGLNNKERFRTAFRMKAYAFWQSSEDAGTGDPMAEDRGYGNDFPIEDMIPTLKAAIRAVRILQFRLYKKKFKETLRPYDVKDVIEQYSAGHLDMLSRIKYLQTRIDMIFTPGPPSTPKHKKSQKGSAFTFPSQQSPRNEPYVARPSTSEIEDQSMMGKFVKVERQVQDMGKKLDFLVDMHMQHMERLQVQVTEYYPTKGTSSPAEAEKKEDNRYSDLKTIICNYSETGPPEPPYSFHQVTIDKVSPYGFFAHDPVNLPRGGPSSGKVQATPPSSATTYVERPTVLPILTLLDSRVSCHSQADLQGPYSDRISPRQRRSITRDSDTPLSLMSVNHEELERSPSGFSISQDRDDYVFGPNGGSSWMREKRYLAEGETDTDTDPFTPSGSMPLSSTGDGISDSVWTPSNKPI
Briefly: Thallium flux assay for KCNQ channel blockers (FLIPR, BTC dye). Particulars: Table 2; thallium flux, HEK-293. Type of experiment: cell-based. Here is the method: Thallium Flux Assay for KCNQ channel blockers. Approximately 20,000 cells/well of an HEK-293 cell line stably transfected with one of the members of the KCNQ family were plated into clear-bottom, black-walled, poly-D-lysine coated, 384 well assay plates in 20 μl/well of low chloride plating medium. Low chloride plating medium was composed of the following: sodium gluconate, 109 mM; potassium gluconate, 5.4 mM; hemi-calcium gluconate, 3.6 mM; magnesium sulfate, 0.8 mM; sodium bicarbonate, 26.2 mM; sodium phosphate monobasic, 1.2 mM; glutamine, 2 mM; glucose, 5 mM; HEPES (pH 7.3) 10 mM, 10× concentration of vitamins (Gibco/LifeTechnologies catalog #11120-052) and 1× concentration of amino acids (Gibco/LifeTechnologies catalog #11130-051).
Following overnight incubation in a 5% CO2 incubator at 37° C., the cells in the plates were loaded with 20 μl/well of a dye loading solution containing the acetomethoxy ester of the thallium-sensitive fluorescent dye BTC, BTC-AM (2 μM) and pluronic acid (0.02% w/v) in chloride free assay buffer. Chloride free assay buffer was composed of the following: sodium gluconate, 140 mM; potassium gluconate, 2.5 mM; hemi-calcium gluconate, 6 mM; hemi-magnesium gluconate, 2 mM; glucose, 5 mM; HEPES (pH 7.3), 10 mM.
Following incubation in the dye loading solution for from 45–90 min at room temperature, the dye loading solution was removed by aspiration and replaced with 40 μl/well of chloride free assay buffer.
Prior to addition to cell plates, test compound and standard compounds were dissolved in DMSO to 3 mM concentration. Compounds were then diluted from the 3 mM stock to 100-fold over the final assay concentration in DMSO. Finally, compounds in DMSO were diluted from 100-fold over the final assay concentration to 5-fold over the final assay concentration in chloride free assay buffer.
Ten μl/well of compounds at 5-fold over the final assay concentration were then added to the cell plates. This represents a 1:5 dilution, yielding the final test concentration. The wells used for test compounds were A1–P20. Wells A21–P22 contained a standard ‘blocker’ and a fully efficacious concentration (positive control). Wells A23–P24 contained chloride free assay buffer containing 1% DMSO (negative control).
Following addition of test compounds, the plates were loaded onto the Molecular Devices FLIPR. The 488 nm line of the argon laser was used to excite the BTC and the emission filter was a 540(+/−30) nm. Images were collected at 1 Hz. Ten seconds of baseline were collected and then the FLIPR was used to add 13 μl/well of a stimulus buffer composed of Tl2SO4, 25 mM; sodium gluconate, 30 mM; potassium sulfate, 50 mM; hemi-calcium gluconate, 6 mM; hemi-magnesium gluconate, 2 mM; glucose, 5 mM; HEPES (pH 7.3), 10 mM in chloride free assay buffer. Images were collected for an additional 60 seconds.
For data analysis, the amplitude of the average of the negative controls was subtracted from all wells. The amplitudes of the test compounds were then compared to the value of four standard deviations of the negative control wells. The lowest concentration of a test compound sufficient to generate a signal amplitude greater than or equal to four standard deviations from the amplitude of the negative controls was defined as the minimal active concentration.
For generating IC50 values, compounds were serially diluted in 1:3 volume increments to produce a 10 point concentration series. IC50 values were calculated by fitting the resulting amplitudes to a single-site logistic equation. IC50 was defined as the concentration of test compound required to yield 50% of the response of the positive control.
For orientation: EC50 means the midpoint of the concentration-response curve. Higher therefore signals weaker potency. Consider `O=C(NCc1cc(F)cc(C(F)(F)F)c1)c1cnc(N2CCCC2)nc1C1(c2ccccc2)CC1` [Example 45, 5-pyrimidinecarboxamide, N-[[3-fluoro-5-(trifluoromethyl)phenyl]methyl]-4-(1-phenylcyclopropyl)-2-(1-pyrrolidinyl)-], for which the response was half-maximal at 0.209 µM (EC50).
The same measure, in the same setting: as for `CC1CCN(c2ncc(C(=O)NCc3ccc(Cl)cc3Cl)c(C3(c4ccccc4)CC3)n2)CC1` [Example 41, 5-pyrimidinecarboxamide, N-[(2,4-dichlorophenyl)methyl]-2-(4-methyl-1-piperidinyl)-4-(1-phenylcyclopropyl)-], the figure is 0.22 µM.

The experiment is the same for the next values; noted with them: hQ23 cells, thallium flux.
`CC1CCC(Nc2ncc(C(=O)NC(C)c3ccc(F)cc3)c(C3(c4ccccc4)CCCC3)n2)CC1` (stereo not drawn) [Example 131, 5-pyrimidinecarboxamide, N-[1-(4-fluorophenyl)ethyl]-2-[(4-methylcyclohexyl)amino]-4-(1-phenylcyclopentyl)-] showed an EC50 of 0.158 µM.
On the same count and under the same terms, as for `O=C(NCc1cccc2ccccc12)c1cnc(NC2CC2)nc1C1(c2ccccc2)CCCC1` [Example 101, 5-pyrimidinecarboxamide, 2-(cyclopropylamino)-N-(1-naphthalenylmethyl)-4-(1-phenylcyclopentyl)-], the figure is 0.669 µM; as for `CN(C)CCNc1ncc(C(=O)NCc2cc(F)cc(C(F)(F)F)c2)c(C2(c3ccc(Cl)cc3)CCCC2)n1` [Example 195, 5-pyrimidinecarboxamide, 4-[1-(4-chlorophenyl)cyclopentyl]-2-[[2-(dimethylamino)ethyl]amino]-N-[[3-fluoro-5-(trifluoromethyl)phenyl]methyl]-], 0.634 µM; as for `CCC(C)Nc1ncc(C(=O)N(C)CCc2ccccc2)c(C2(c3ccc(F)cc3)CCCC2)n1` (stereo not drawn) [Example 223, 5-pyrimidinecarboxamide, 4-[1-(4-fluorophenyl)cyclopentyl]-N-methyl-2-[(1-methylpropyl)amino]-N-(2-phenylethyl)-], 0.675 µM.
On the same count and under the same terms, the same measure for `CCN(C(=O)c1cnc(N2CCC(C)CC2)nc1C1(c2ccccc2)CCCC1)C1CCCCC1` [Example 76, 5-pyrimidinecarboxamide, N-cyclohexyl-N-ethyl-2-(4-methyl-1-piperidinyl)-4-(1-phenylcyclopentyl)-]: 0.9 µM; for `CC1CCC(Nc2ncc(C(=O)NCc3ccc(C(F)(F)F)cc3)c(C3(c4ccccc4)CCCC3)n2)CC1` (stereo not drawn) [Example 137, 5-pyrimidinecarboxamide, 2-[(4-methylcyclohexyl)amino]-4-(1-phenylcyclopentyl)-N-[[4-(trifluoromethyl)phenyl]methyl]-]: 0.964 µM.
On the same count and under the same terms, the same measure for `CC1CCCN(c2ncc(C(=O)N(C(C)C)C(C)C)c(C3(c4ccccc4)CCCC3)n2)C1` (stereo not drawn) [Example 82, 5-pyrimidinecarboxamide,N,N-bis(1-methylethyl)-2-(3-methyl-1-piperidinyl)-4-(1-phenylcyclopentyl)-]: 0.285 µM; for `CC1CCC(Nc2ncc(C(=O)NCc3cc(F)cc(C(F)(F)F)c3)c(C3(c4ccc(Cl)cc4)CCCC3)n2)CC1` (stereo not drawn) [Example 190, 5-pyrimidinecarboxamide, 4-[1-(4-chlorophenyl)cyclopentyl]-N-[[3-fluoro-5-(trifluoromethyl)phenyl]methyl]-2-[(4-methylcyclohexyl)amino]-]: 0.163 µM; for `CCN(C(=O)c1cnc(N2CCC(C)CC2)nc1C1(c2ccc(F)cc2)CCCC1)C1CCCCC1` [Example 215, 5-pyrimidinecarboxamide, N-cyclohexyl-N-ethyl-4-[1-(4-fluorophenyl)cyclopentyl]-2-(4-methyl-1-piperidinyl)-]: 0.922 µM.

The same experiment, now with this note: hQ23 cells, thallium flux assay.
The compound `CC1CCN(c2ncc(C(=O)NCc3cccc4ccccc34)c(C3(c4ccc(F)cc4)CCCC3)n2)CC1` [Example 251, 5-pyrimidinecarboxamide, 4-[1-(4-fluorophenyl)cyclopentyl]-2-(4-methyl-1-piperidinyl)-N-(1-naphthalenylmethyl)-] gave a half-maximal effective concentration (EC50) of 0.015 µM.
